# Article PMC7285913, “In vitro hepatic biotransformation of the algal toxin pectenotoxin-2” (Toxicon: X, 2020)
# Experiments:
# [1] = ref Alexander et al., 2009, cited from earlier work; for provisional toxicity equivalent factor (TEF): EFSA
# mice [2] = details: mouse, ref Suzuki et al., 2006, cited from earlier work
# mussels = details: in mussels, in contrast to PTX-2; ref MacKenzie et al., 2005; cited from earlier work
# mice [3] = details: intestinal toxicity in mice; ref Alexander et al., 2009; cited from earlier work
# [4] = In vitro hepatocyte assay under kinetic conditions (PTX-2 disappearance); type: in vitro ADME, Wistar rats; details: male, Wistar, primary rat hepatocytes in suspension, pH 7.4, primary rat hepatocytes, read-out: t½,assay (converted)
# Method: (§1) Isolated rat liver cells were prepared by a two-step collagenase ex vivo perfusion from male Wistar rats, weighing 250–300 g and kept under routine laboratory conditions with free access to standard laboratory pelleted feed and water ([Seglen, 1976]). The hepatocytes were separated by gradient centrifugation ([Fæste and Moldes-Anaya, 2016]), suspended in PBS, and stored for up to 1 h on ice before use ([Sidelmann et al., 1996], [Gebhardt et al., 2003]). Cell viability was determined microscopically (Leica DMIL microscope; Leica Microsystems GmBH, Wetzlar, Germany), using Trypan blue staining and a Neubauer-counting chamber. About 2.5 × 10^8 living cells per liver were obtained on average, and only preparations with viabilities >92% were used in the metabolism experiments.
# (§2) The hepatocyte suspension was diluted with KRB–HEPES buffer pH 7.4 (Krebs-Ringer buffer containing 145 mM NaCl, 5.4 mM KCl, 0.8 mM MgSO4, 0.33 mM Na2HPO4, 0.34 mM KH2PO4, 2 mM CaCl2, and 20 mM HEPES) to a final assay concentration of 2.5 × 10^6 cells/mL. The incubations were performed in capped round-bottom glass tubes in a total assay volume of 5 mL. After pre-incubation for 5 min at 37 °C in a shaking water bath, 5–25 μL of a PTX-2 stock solution containing 1 mg/mL PTX-2 in MeOH were added, resulting in initial concentrations of 1–5 μg/mL PTX-2 in the assay. Aliquots (300 μL) were taken after 0, 2.5, 5, 7.5, 10, 15, 30, and 60 min of incubation and directly transferred into 300 μL ice-cold acetonitrile (ACN) in Eppendorf tubes. Two control samples were included in the experiments, a blank matrix control and a PTX-2 stability control. After centrifuging all samples at 16,000 g for 1 min (5415D centrifuge; Eppendorf AG, Hamburg, Germany), the supernatants were transferred to HPLC vials for analysis by liquid chromatography mass spectrometry (LC-MS) to determine the half-life of PTX-2 in rat hepatocytes.
# (§3) LC-MS analyses of centrifuged aliquots from the kinetic assays were performed under reversed phase conditions using a Symmetry C18 column (5 μm, 3.9 × 150 mm) (Waters, Milford, MA, USA) and a binary LC pump (Finnigan Mod. 250) coupled to an Autosampler Plus (Thermo Electron Corporation, San Jose, CA, USA). 5–20 μL samples were injected and eluted using a linear gradient starting with ACN/water (40:60, v/v, both containing 0.1% formic acid and 2 mM ammonium formate) and rising to 100% ACN in 20 min. Isocratic elution with 100% ACN was maintained for 5 min before the eluent was returned to the starting conditions. The flow rate was set to 1 mL/min.
# primary rat hepatocytes [5] = test: as above; type: in vitro ADME, Wistar rats
# Method: as §1, §2, §3
# primary rat hepatocytes [6] = test: Calculation of the hepatic clearance and maximum bioavailability of PTX-2 in rats from hepatocyte half-life; type: in vitro ADME; details: for CLb: predicted in vivo hepatic blood clearance in rat, well-stirred model, fub = 1; for CLint: scaled from rat hepatocyte assay
# Method: The in vitro assay clearance (CLassay) of PTX-2 was calculated from the hepatocyte incubations run with first order kinetics (CLassay = Vassay × ln2/t1/2 [Lh^−1]) using the assay volume (Vassay) and the disappearance half-life (t1/2) of the parent compound as determined from the slope of the linear regression from a semi-logarithmic concentration vs. time plot ([Obach, 1999]). […] The in vivo hepatic blood clearance (CLb) was calculated from CLint by applying the non-restricted well-stirred model (CLb = CLint x Q/(CLint + Q) [L (h x kg)^−1]) ([Houston, 1994]), considering the hepatic blood flow in rat (Q ~ 4.2 L (h x kg)^−1) ([Lin and Lu, 1998]). Potential binding to blood components in vivo was not considered in this study and thus the fraction unbound in blood (fub) set to 1. The maximum bioavailability (Fmax) of PTX-2 in rats was estimated (Fmax = Fa x (1 – (CLb/Q) under the assumption of complete absorption from the gastrointestinal tract (Fa = 1) ([De Buck et al., 2007]) and negligible non-hepatic elimination. Fmax was ranked according to the criteria for low (0–10%), moderate (10–30%) and high bioavailability (up to 100%) ([Obach, 1996]).
# mice [7] = details: single oral doses of 0.3, 1 and 5 mg/kg bw, preliminary data, ref Burgess and Shaw, 2001, Alexander et al., 2009; cited from earlier work
smiles,measurement,setting,value
"CC(/C=C/[C@H]1O[C@H]([C@@]2(O)OCC[C@@H](C)[C@H]2O)C[C@H]1O)=C\[C@H](C)C[C@@]1(C)CC[C@H]([C@@]23CC[C@@](C)(C[C@H]([C@H]4O[C@@](C)([C@@H](O)[C@@H]5CCC6(CCC[C@@H]([C@@H](C)C(=O)O)O6)O5)CC4=O)O2)O3)O1 (stereo partly drawn) [PTX-2 seco acid (SA), pectenotoxin-2 seco acid]",relative toxicity,[1]; compared with PTXs given TEF of 1,much less toxic
"CC1=C\[C@H](C)C[C@@]2(C)CC[C@@H](O2)[C@@]23CC[C@@](CO)(C[C@@H](O2)[C@H]2O[C@](C)(CC2=O)[C@@H](O)[C@@H]2CC[C@@]4(CCC[C@H](O4)[C@@H](C)C(=O)O[C@@H]4C[C@@H]([C@@]5(O)OCC[C@@H](C)[C@H]5O)O[C@@H]4\C=C\1)O2)O3 [PTX-1, reference compound]",provisional toxicity equivalent factor (TEF),[1],1
"CC1=C\[C@H](C)C[C@@]2(C)CC[C@@H](O2)[C@@]23CC[C@@](C)(C[C@@H](O2)[C@H]2O[C@](C)(CC2=O)[C@@H](O)[C@@H]2CC[C@@]4(CCC[C@H](O4)[C@@H](C)C(=O)O[C@@H]4[C@H](O)[C@@H]([C@@]5(O)OCC[C@@H](C)[C@H]5O)O[C@@H]4\C=C\1)O2)O3 [PTX-11, 34 S-hydroxypectenotoxin-2]",provisional toxicity equivalent factor (TEF),[1],1
same,effects after oral application,mice [2]; as much as 5 mg/kg bw p. o.,no effects were detected
same,LD50,mice [2]; i. p.,0.24 mg/kg bw
same,resistance to enzymatic hydrolysis,mussels,relatively resistant to enzymatic hydrolysis
CC1=C\[C@H](C)C[C@@]2(C)CC[C@@H](O2)[C@@]23CC[C@@](C=O)(C[C@@H](O2)[C@H]2O[C@](C)(CC2=O)[C@@H](O)[C@@H]2CC[C@@]4(CCC[C@H](O4)[C@@H](C)C(=O)O[C@@H]4C[C@@H]([C@@]5(O)OCC[C@@H](C)[C@H]5O)O[C@@H]4\C=C\1)O2)O3 [PTX-3],provisional toxicity equivalent factor (TEF),[1],1
CC1=C\[C@H](C)C[C@@]2(C)CC[C@@H](O2)[C@@]23CC[C@@](CO)(C[C@@H](O2)[C@H]2O[C@](C)(CC2=O)[C@@H](O)[C@@H]2CC[C@]4(CCC[C@H](O4)[C@@H](C)C(=O)O[C@@H]4C[C@@H]([C@@]5(O)OCC[C@@H](C)[C@H]5O)O[C@@H]4\C=C\1)O2)O3 [PTX-4],provisional toxicity equivalent factor (TEF),[1],1
"CC1=CC(C)CC2(C)CCC(O2)C23CCC(C)(CC(O2)C2OC(C)(CC2=O)C(O)C2CCC4(CCCC(O4)C(C)C(=O)OC4CC(C5(O)OCCC(C)C5O)OC4C=C1)O2)O3 (stereo not drawn) [PTX-2, pectenotoxin-2]",lowest-observed-adverse-effect-level (LOAEL),mice [3],250 μg/kg bw
same,half-life at 1.4 μg/mL,[4]; PTX-2 1.4 μg/mL,11.4 min
same,half-life at 2.6 μg/mL,[4]; PTX-2 2.6 μg/mL,9.6 min
same,half-life at 4.8 μg/mL,[4]; PTX-2 4.8 μg/mL,12 min
same,PTX-2 remaining unchanged,"primary rat hepatocytes [5]; after 30 min of incubation, all concentrations, rat hepatocytes",17–20%
same,metabolism in freshly isolated rat hepatocytes,primary rat hepatocytes [5]; freshly isolated rat hepatocytes,rapidly metabolized
same,provisional toxicity equivalent factor (TEF),[1],1
same,acute reference dose (ARfD),[1]; established by EFSA,0.8 μg PTX-2 equivalents/kg body weight (bw)
same,CLb,primary rat hepatocytes [6]; PTX-2 1.4 μg/mL,47.3 mL/min/kg
same,CLint,primary rat hepatocytes [6]; PTX-2 1.4 μg/mL,146 mL/min/kg
same,CLb,primary rat hepatocytes [6]; PTX-2 2.6 μg/mL,50 mL/min/kg
same,CLint,primary rat hepatocytes [6]; PTX-2 2.6 μg/mL,174 mL/min/kg
same,CLb,primary rat hepatocytes [6]; PTX-2 4.8 μg/mL,47 mL/min/kg
same,CLint,primary rat hepatocytes [6]; PTX-2 4.8 μg/mL,143 mL/min/kg
same,compound predicted to remain unmetabolized after the first pass through the liver,"primary rat hepatocytes [6]; after oral uptake, rat",up to 32%
same,predicted hepatic blood clearance (rank),"primary rat hepatocytes [6]; rat, negligible protein binding and unrestricted absorption assumed",moderate
same,metabolic elimination,mice [7],considerable metabolic elimination
same,uptake from the gastrointestinal tract,mice [7],low uptake from the gastrointestinal tract
CC1=C\[C@H](C)C[C@@]2(C)CC[C@@H](O2)[C@@]23CC[C@@](C(=O)O)(C[C@@H](O2)[C@H]2O[C@](C)(CC2=O)[C@@H](O)[C@@H]2CC[C@@]4(CCC[C@H](O4)[C@@H](C)C(=O)O[C@@H]4C[C@@H]([C@@]5(O)OCC[C@@H](C)[C@H]5O)O[C@@H]4\C=C\1)O2)O3 [PTX-6],provisional toxicity equivalent factor (TEF),[1],1
